The values below come from patent publication US5268462A, “Oleandomycin oximes” (Pliva Farmaceutska, priority 1990, dated 1993).

Holding throughout (type): cell-based
One test deals with E. coli ATCC 10536. Briefly: Antibacterial in vitro activity (MIC), standard strain. Conditions: Escherichia coli, ATCC10536; E. coli ATCC 10536, standard strain; read-out: Minimal Inhibitory Concentration (MIC). An excerpt: (§1) The antibacterial in vitro activity was evidenced on a series of standard and clinically isolated strains. The results are expressed as Minimal Inhibitory Concentration (MIC; μg/mL) and represented hereinbelow in Tables 1 and 2.

The test system of test [1] is Klebsiella pneum. NCTC-10499. The test is described as above. Conditions: NCTC10499; Klebsiella pneum. NCTC-10499, standard strain; read-out: Minimal Inhibitory Concentration (MIC).
Excerpt: as §1

Another test has as its system Pseud. aerug. NCTC-10490. The description is as above. The conditions noted are these: Pseud. aerug. NCTC-10490, standard strain; read-out: Minimal Inhibitory Concentration (MIC).
Excerpt: as §1

A further test concerns Sarcina lutea ATCC-9341. The test is described as above. The conditions noted are these: Micrococcus luteus, ATCC9341; Sarcina lutea ATCC-9341, standard strain; read-out: Minimal Inhibitory Concentration (MIC).
Excerpt: as §1

Test [2] has as its system Staph. aureus ATCC 6538-P. The description is as above. Conditions: Staphylococcus aureus, ATCC6538, read-out: Minimal Inhibitory Concentration (MIC).
Excerpt: as §1

The test system of test [3] is Strept. faecalis ATCC-8043. The description is as above. Conditions: Enterococcus faecalis, ATCC8043; Strept. faecalis ATCC-8043, standard strain; read-out: Minimal Inhibitory Concentration (MIC).
Excerpt: as §1

The test system of a further test is Staph. aureus 10097. Briefly: Antibacterial in vitro activity (MIC), clinical isolate. Conditions: Staphylococcus aureus; Staph. aureus 10097, clinical isolate; read-out: Minimal Inhibitory Concentration (MIC).
Excerpt: as §1

For a further test, the system named is Staph. aureus 10099. The test is described as above. The conditions noted are these: Staphylococcus aureus; Staph. aureus 10099, clinical isolate; read-out: Minimal Inhibitory Concentration (MIC).
Excerpt: as §1

Another test relates to Staph. saprophyt. 3947. Described as above. Conditions: Staph. saprophyt. 3947, clinical isolate; read-out: Minimal Inhibitory Concentration (MIC).
Excerpt: as §1

For a further test, the system named is Strept. faecalis 10390. The description is as above. Conditions: Enterococcus faecalis; Strept. faecalis 10390, clinical isolate; read-out: Minimal Inhibitory Concentration (MIC).
Excerpt: as §1

The test system of another test is Strept. pneumoniae 4050. The test is described as above. Conditions: Streptococcus pneumoniae; Strept. pneumoniae 4050, clinical isolate; read-out: Minimal Inhibitory Concentration (MIC).
Excerpt: as §1

In another test the test system is Strept. pneumoniae. Briefly: MIC (clinical isolates), Examples 1-3. The conditions noted are these: Streptococcus pneumoniae.
Excerpt: as §1

In another test the test system is Strept. serol. group A. Briefly: MIC (clinical isolates), Examples 1-3.
Excerpt: as §1

The test system of the next test is H. Influenze 4028. Briefly: Antibacterial in vitro activity (MIC), clinical isolate. Conditions: H. Influenze 4028, clinical isolate; read-out: Minimal Inhibitory Concentration (MIC).
Excerpt: as §1

The test system of another test is Sarcina lutea ATCC 9341. Briefly: Activity on Sarcina lutea ATCC 9341.

The structures appear in SMILES notation. ≈ marks a conversion by molar mass, not a printed value. Where only a bound is given, the exact number is not on record here.

As for `CO[C@H]1C[C@H](O[C@H]2[C@H](C)[C@@H](O[C@@H]3O[C@H](C)C[C@H](N(C)C)[C@H]3O)[C@@H](C)C[C@@]3(CO3)C(=O)[C@H](C)[C@@H](O)[C@@H](C)[C@@H](C)OC(=O)[C@@H]2C)O[C@@H](C)[C@@H]1O` [oleandomycin phosphate, reference compound], the MIC is 25 µg/mL in the test with E. coli ATCC 10536; more than 50 µg/mL in [1]; more than 50 µg/mL with Pseud. aerug. NCTC-10490; 0.2 µg/mL with Sarcina lutea ATCC-9341; 0.4 µg/mL in [2]; 0.8 µg/mL in test [3]. The MIC was found to be 0.8 µg/mL in the test on Staph. aureus 10097; 0.8 µg/mL in the test on Staph. aureus 10099; 1.6 µg/mL with Staph. saprophyt. 3947; 3.1 µg/mL in the test on Strept. faecalis 10390; 1.6 µg/mL in the test on Strept. pneumoniae 4050.
As for `COC1CC(OC2C(C)C(=O)OC(C)C(C)C(O)C(C)C(=NO)C3(CO3)CC(C)C(OC3OC(C)CC(N(C)C)C3O)C2C)OC(C)C1O` (stereo not drawn) [Ia, OLEANDOMYCIN OXIME], the MIC in the test with Strept. pneumoniae and against Strept. serol. group A was 0.5 µg/mL (≈ 0.711 µM) each time.
Take `C=C1CC(C)C(OC2OC(C)CC(N(C)C)C2O)C(C)C(OC2CC(OC)C(O)C(C)O2)C(C)C(=O)OC(C)C(C)C(O)C(C)C1=NO` (stereo not drawn) [Ic, 8-METHYLENE-OLEANDOMYCIN OXIME]: the MIC in the test on Strept. pneumoniae and with Strept. serol. group A was 1 µg/mL (≈ 1.46 µM) in each case.
In the case of `COC1CC(OC2C(C)C(=O)OC(C)C(C)C(O)C(C)C(=NO)C(C)CC(C)C(OC3OC(C)CC(N(C)C)C3O)C2C)OC(C)C1O` (single isomer, unassigned) [Ie, 8-methyl-oleandomycin oxime], the MIC in the test with E. coli ATCC 10536 is 6.2 µg/mL (≈ 9 µM); in [1], 50 µg/mL (≈ 72.6 µM); in the test with Pseud. aerug. NCTC-10490, 50 µg/mL (≈ 72.6 µM); in the test with Sarcina lutea ATCC-9341, 0.2 µg/mL (≈ 0.29 µM); in test [2] it was 0.2 µg/mL (≈ 0.29 µM); in test [3], 0.2 µg/mL (≈ 0.29 µM). In addition, the MIC was found to be 0.4 µg/mL (≈ 0.581 µM) with H. Influenze 4028; 0.4 µg/mL (≈ 0.581 µM) with Staph. aureus 10097; 0.4 µg/mL (≈ 0.581 µM) with Staph. aureus 10099; 1.6 µg/mL (≈ 2.32 µM) in the test on Staph. saprophyt. 3947; 0.8 µg/mL (≈ 1.16 µM) in the test with Strept. faecalis 10390; 0.4 µg/mL (≈ 0.581 µM) in the test with Strept. pneumoniae 4050. Moreover, the Activity in the test on Sarcina lutea ATCC 9341 came to 657 u/mg.
On to `COC1CC(OC2C(C)C(=O)OC(C)C(C)C=C(C)C(=NO)C3(CO3)CC(C)C(OC3OC(C)CC(N(C)C)C3O)C2C)OC(C)C1O` (stereo not drawn) [Ib, ANHYDRO OLEANDOMYCIN OXIME], for which the MIC against Strept. pneumoniae was 2 µg/mL (≈ 2.92 µM); against Strept. serol. group A, 1 µg/mL (≈ 1.46 µM).
